Results on nine compounds are retold here after US8362236B2, “Macrocyclic compound” (Chugai Seiyaku Kabushiki Kaisha, priority 2007, dated 2013).

Usually IC50 stands for the concentration at which inhibition is half-maximal.

For one test, the target named is T1, Human HSP90 alpha (Homo sapiens, UniProt P07900).
T1 construct: His tag (inferred from purification on a HisPrep FF column); made in house; host or cells: E. coli BL21 codon plus (Stratagene)
In words: Assay for the activity of inhibiting HSP90 enzyme (ATPase, malachite green). The class given is biochemical. The following applies: purified human HSP90 alpha, 1 mM ATP added, 37° C. for two hours, OD655; read-out: Enzyme-inhibiting activity (IC50, μM) Human HSP90α. How it is done: Introduction of pETHuHSP90a into E. coli (BL21 codon plus; Stratagene) was followed by O/N incubation in the presence of 0.1 mM IPTG, and the collected E. coli cells were disrupted by ultrasonication in a Lysis buffer (50 mM Tris-HCl (pH8.0), 10 mM MgCl2, 0.1% Triton X-100, Protease inhibitor cocktail tablets (Roche Diagnostics)). The cell lysate solution was centrifuged (10,000 rpm×30 minutes), and the supernatant obtained after centrifugation was used as a crude extract. The crude extract was fractionated using HisPrep FF column and HiTrap Q column (Amersham) to prepare a purified enzyme solution.
An enzyme solution for assays was prepared by dilution of the purified enzyme solution using an assay buffer (50 mM Tris HCl pH7.6, 20 mM KCl, 5 mM MgCl2).
10 μL each of various concentrations of the test substances (10% DMSO solution) was added to each well, and for the positive control wells, 10 μL of 10% DMSO was added. 10 μL of 10% DMSO was also added to the negative control well.
10 μL of 1 mM ATP was added to all of the wells, and the reaction was carried out at 37° C. for two hours.

The next test relates to HCT116 cells. The test is described as follows: Measurement of cell growth inhibition (Cell Counting Kit-8, four days).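 Further: cells exposed to a range of test concentrations at 37 °C in 5% CO2 for four days, then growth read as absorbance with Cell Counting Kit-8.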 To be noted: Homo sapiens, HCT-116, 96 h, read-out: Cell growth-inhibiting activity (IC50, μM) Colon cancer HCT116, HCT116 colon cancer cell line, four days culture. (Tetrazolium assays rely on reduction of a dye to a coloured formazan, in cell work by metabolically active cells.)

Molecules are shown by their SMILES.

Description for HCT116 cells: Cells were maintained under conditions recommended by the provider of each cell line. Cells suspended in a medium were added to solutions containing various concentrations of the test substance, and the cells were cultured at 37° C. in a 5% CO2 incubator. Four days later, Cell Counting Kit-8 was added, and absorbance measurements were taken following the protocol included in the kit.

For `Cc1cc(C)c2cc1C(=O)NCCCN(CCN1CCOCC1)C(=O)CCSc1cc-2nc(N)n1` [Compound 36, 4-amino-18,20-dimethyl-11-(2-morpholin-4-ylethyl)-7-thia-3,5,11,15-tetraazatricyclo[15.3.1.1^2,6]docosa-1(20),2,4,6(22),17(21),18-hexaene-10,16-dione], the figures for the IC50 on Human HSP90 alpha and in the test with HCT116 cells were 0.7 µM and 1.8 µM, respectively.

For `Cc1cc(C)c2cc1C(=O)NCCC[C@@H](C(=O)NCCO)NC(=O)CCSc1cc-2nc(N)n1` [Compound 46, (S)-4-amino-19,21-dimethyl-10,17-dioxo-7-thia-3,5,11,16-tetraazatricyclo[16.3.1.1^2,6]tricosa-1(21),2,4,6(23),18(22),19-hexaene-12-carboxylic acid (2-hydroxyethyl)amide], the IC50 was 1.1 µM at Human HSP90 alpha and > 10 µM in the test on HCT116 cells.

`Cc1cc(C)c2cc1C(=O)NCCC[C@@H](C(=O)NCC(O)CO)NC(=O)CCSc1cc-2nc(N)n1` (stereo partly drawn) [Compound 48, (S)-4-amino-19,21-dimethyl-10,17-dioxo-7-thia-3,5,11,16-tetraazatricyclo[16.3.1.1^2,6]tricosa-1(21),2,4,6(23),18(22),19-hexaene-12-carboxylic acid (2,3-dihydroxypropyl) amide]: the results for the IC50 on Human HSP90 alpha and in the test on HCT116 cells were 0.8 µM and > 10 µM, respectively.

For `COC(=O)[C@@H]1CCNC(=O)CCSc2cc(nc(N)n2)-c2cc(c(C)cc2C)C(=O)N1` [Compound 63, (S)-4-amino-18,20-dimethyl-10,16-dioxo-7-thia-3,5,11,15-tetraazatricyclo[15.3.1.1^2,6]docosa-1(20),2(22),3,5,17(21),18-hexaene-14-carboxylic acid methyl ester], the IC50 on Human HSP90 alpha is 2.8 µM; in the test on HCT116 cells, 0.2 µM.

As to `CNC(=O)[C@@H]1CCNC(=O)CCSc2cc(nc(N)n2)-c2cc(c(C)cc2C)C(=O)N1` [Compound 65, (S)-4-amino-18,20-dimethyl-10,16-dioxo-7-thia-3,5,11,15-tetraazatricyclo[15.3.1.1^2,6]docosa-1(20),2(22),3,5,17(21),18-hexaene-14-carboxylic acid methylamide], the figures for the IC50 on Human HSP90 alpha and in the test on HCT116 cells were 2.8 µM and 9 µM, respectively.

Turning to `COCCNC(=O)[C@@H]1CCNC(=O)CCSc2cc(nc(N)n2)-c2cc(c(C)cc2C)C(=O)N1` [Compound 66, (S)-4-amino-18,20-dimethyl-10,16-dioxo-7-thia-3,5,11,15-tetraazatricyclo[15.3.1.1^2,6]docosa-1(20),2(22),3,5,17(21),18-hexaene-14-carboxylic acid (2-methoxyethyl) amide], the half-maximal inhibitory concentration (IC50) at Human HSP90 alpha was 2.5 µM; with HCT116 cells it was > 10 µM.

Turning to `Cc1cc(C)c2cc1C(=O)N[C@H](C(=O)N(C)C)CCNC(=O)CCSc1cc-2nc(N)n1` [Compound 67, (S)-4-amino-18,20-dimethyl-10,16-dioxo-7-thia-3,5,11,15-tetraazatricyclo[15.3.1.1^2,6]docosa-1(20),2(22),3,5,17(21),18-hexaene-14-carboxylic acid dimethylamide], the IC50 is 5.5 µM at Human HSP90 alpha and > 5 µM with HCT116 cells.

Turning to `Cc1cc(C)c2cc1C(=O)N[C@H](CO)CCNC(=O)CCSc1cc-2nc(N)n1` [Compound 68, (S)-4-amino-14-hydroxymethyl-18,20-dimethyl-7-thia-3,5,11,15-tetraazatricyclo[15.3.1.1^2,6]docosa-1(20),2(22),3,5,17(21),18-hexaene-10,16-dione], the results for the IC50 on Human HSP90 alpha and in the test on HCT116 cells were 1.7 µM and 7.1 µM, respectively.

Take `COC(=O)[C@H]1CCNC(=O)c2cc(c(C)cc2C)-c2cc(nc(N)n2)SCCC(=O)N1` [Compound 69, (R)-4-amino-18,20-dimethyl-10,16-dioxo-7-thia-3,5,11,15-tetraazatricyclo[15.3.1.1^2,6]docosa-1(20),2,4,6(22),17(21),18-hexaene-12-carboxylic acid methyl ester]: the IC50 at Human HSP90 alpha is 2.9 µM; with HCT116 cells, 3.2 µM.
